Measured values as given in US8936809B2, “Method for treating prostate diseases based on local delivery of active substances” (Lidds AB, priority 2005, dated 2015).

What was measured:
[1] = Plasma pharmacokinetics and tissue level after controlled release implant into bulbourethral gland of male sheep (Example 2); format: in vivo; details: three moths after the injection
in vivo = details: male, Labrador, dog, iv, 25 mg
Procedure: First, four male dogs (H1-H4) (Labrador, approx. 1 year of age and weight 30 kg) were given 2-hydroxy-flutamide (25 mg) by single bolus doses intravenously during 30 seconds. The intravenous solution base was sterile saline […], sterile polyethylene glycol 400 46% and ethanol (95%) 6%. Blood samples of 1.0 ml were taken from the Cephalic vein at 5, 10, 15, 30, 60, 90, 120, 240, 360, and 600 minutes. The blood samples were immediately centrifuged at 3000 rpm and the plasma samples were frozen at −80° C. until analysis.
Quantification of 2-hydroxy-flutamide in plasma and tissue samples was done by HPLC-MS. HPLC was performed with a Surveyor HPLC system equipped with a CTC Pal autosampler. The analytical column was a Zorbax Eclipse XDB-18 (2.1 mm×50 mm, particle size 5 μm) connected to a guard column. The eluent consisted of solvent A (aqueous formic acid 0.1%) and B (acetonitrile), a linear gradient from 25 to 90% of solvent B in 5 minutes was applied. The proportion of solvent B was then lowered to 25% in one minute and was allowed to equilibrate at this level for two minutes prior to the next injection. The volumetric flow-rate was 200 μL/min and the injection volume was 20 μL. The HPLC column outlet was coupled to a TSQ Quantum Ultra tandem triple quadrupole mass spectrometer (ThermoFinnigan, San José, Calif., USA). The transition of m/z 291 [M-H]^−→205 was used for 2-hydroxy-flutamide and m/z 316 [M-H]^−→273 was used for nilutamide (internal standard). The limit of quantification was 0.50 ng/ml in dog plasma. Calibration samples were prepared by spiking blank plasma samples with 100 μL of solutions of 2-hydroxy-flutamide at different concentrations. […] The accuracies of the analytical runs were calculated as 100*(mean determined concentration in QC sample/spiked concentration) % and the intra-run precisions were calculated as the relative standard deviation (RSD %) of the determined concentrations at each QC level. […]

[2] = system: androgen dependent tissue (bulbourethral gland); assay: Local anti-androgen effect and side effects after implant into bulbourethral gland of male sheep (Example 2); format: in vivo
Procedure: The major purpose of the present animal study was to examine the pharmacokinetics, efficacy and safety of the novel local drug delivery system with 2-hydroxyflutamide, a selective antagonist to the androgen receptor (AR). A ceramic based drug delivery product was administered into an androgen dependent tissue (the bulbourethral gland) in male sheep. In total 11 male sheep were divided into two separate groups. One group was given 2-hydroxyflutamide by the local implant delivery system as a single administration into the bulbourethral gland and was monitored during 2 months. Each sheep in this treatment group received the prostate implant by a single dose of 250 mg. The other group only received ceramic formulation without any active drug substance.
The implant drug delivery system was inserted locally, via rectum, into the androgen dependent tissue (bulbourethral gland) through sterile needles during rectal ultrasound guidance. The animals were during anaesthesia throughout the insertion procedure. The sterile ceramic based implant had two major components: calcium sulphate (CaSO4-0.5H2O) and 2-hydroxyflutamide. The composition of the formulation was 250 mg 2-hydroxyflutamide+2.25 g calcium sulphate di-hydrate+5.0 g calcium sulphate hemi-hydrate and it was mixed with solution: 3.5 ml of water solution (with 1% acetic acid and 1% methyl cellulose). […]

levels in prostate gland [1]: possible to quantify
Cmax (in vivo; Cmax): 835 ng/mL
half-life (in vivo; elimination half-life): 105 ± 12 min
half-life (in vivo; t1/2): 114 min
Structure (SMILES): CC(C)(O)C(=O)Nc1ccc([N+](=O)[O-])c(C(F)(F)F)c1 [2-hydroxy-flutamide]
androgen dependent side effect ([2]; 250 mg implant into bulbourethral gland): no androgen dependent side effect observed
macroscopic effect on the androgen dependent tissue (bulbourethral gland) ([2]; single intra-gland injection of 250 mg implant): decreased volume and weight
